Values quoted from earlier work, collected in publication PMC5082644 (Molecular Vision, 2016).

Tested on: complement activation / C5b-9n (MAC) deposition in human fetal RPE cell cultures
Conditions: among peptides with polar dipeptides added at the N-terminus

Ac-RSI[CV(meW)QDWGAHRC]T-NH2 (disulfide)
Efficacy in the human RPE cell-based assay: most efficacious
